In PubChem BioAssay (NCI):
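Protocol summary: plate cells (96-well), add compound at 5 concentrations, incubate 48 h, interpolate endpoints linearly. TGI: total growth inhibition.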

Key:
Assay in all cases: growth of human tumour cells (NCI), 48 h
[1] = tested on: NCI/ADR-RES ovarian
[2] = tested on: LOX IMVI melanoma
[3] = tested on: OVCAR-8 ovarian
[4] = tested on: HL-60(TB) leukemia
[5] = tested on: OVCAR-5 ovarian
[6] = tested on: MALME-3M melanoma
[7] = tested on: SF-295 CNS
[8] = tested on: MOLT-4 leukemia
[9] = tested on: TK-10 renal
[10] = tested on: NCI-H522 lung
[11] = tested on: HT29 colon
[12] = tested on: KM12 colon
[13] = tested on: MCF7 breast
[14] = tested on: ACHN renal
[15] = tested on: PC-3 prostate
[16] = tested on: DU-145 prostate
[17] = tested on: SK-MEL-5 melanoma
[18] = tested on: COLO 205 colon
[19] = tested on: NCI-H23 lung
[20] = tested on: MDA-N
[21] = tested on: SN12C renal
[22] = tested on: HCT-15 colon
[23] = tested on: UACC-257 melanoma
[24] = tested on: SNB-19 CNS
[25] = tested on: M14 melanoma
[26] = tested on: CAKI-1 renal
[27] = tested on: OVCAR-4 ovarian
[28] = tested on: HOP-62 NSCLC
[29] = tested on: OVCAR-3 ovarian
[30] = tested on: HOP-92 NSCLC
[31] = tested on: SNB-75 CNS
[32] = tested on: BT-549 breast
[33] = tested on: RPMI-8226 leukemia
[34] = tested on: A549 NSCLC
[35] = tested on: IGROV1 ovarian
[36] = tested on: MDA-MB-231 breast
[37] = tested on: SF-268 CNS
[38] = tested on: SK-OV-3 ovarian
[39] = tested on: CCRF-CEM leukemia
[40] = tested on: UACC-62 melanoma
[41] = tested on: K-562 leukemia
[42] = tested on: 786-0 renal
[43] = tested on: SK-MEL-2 melanoma
[44] = tested on: RXF 393 renal
[45] = tested on: SF-539 CNS
[46] = tested on: HS 578T breast
[47] = tested on: NCI-H226 lung
[48] = tested on: U251 CNS
[49] = tested on: EKVX NSCLC
[50] = tested on: SK-MEL-28 melanoma
[51] = tested on: T-47D breast
[52] = tested on: SW-620 colon
[53] = tested on: MDA-MB-435
[54] = tested on: NCI-H460 lung
[55] = tested on: UO-31 renal
[56] = tested on: HCT-116 colon
[57] = tested on: A498 renal
[58] = tested on: HCC-2998 colon

## O=C1NC(N/N=C/c2cccs2)=N/C1=C\c1ccco1
[1]
  TGI: > 100 µM
[2]
  TGI: > 100 µM
[3]
  TGI: > 100 µM
[4]
  TGI: > 100 µM
[5]
  TGI: > 100 µM
[6]
  TGI: > 100 µM
[7]
  TGI: > 100 µM
[8]
  TGI: > 100 µM
[9]
  TGI: > 100 µM
[10]
  TGI: 39.9 µM
[11]
  TGI: > 100 µM
[12]
  TGI: > 100 µM
[13]
  TGI: > 100 µM
[14]
  TGI: > 100 µM
[15]
  TGI: > 100 µM
[16]
  TGI: > 100 µM
[17]
  TGI: > 100 µM
[18]
  TGI: > 100 µM
[19]
  TGI: > 100 µM
[20]
  TGI: 13.6 µM
[21]
  TGI: > 100 µM
[22]
  TGI: > 100 µM
[23]
  TGI: > 100 µM
[24]
  TGI: > 100 µM
[25]
  TGI: > 100 µM
[26]
  TGI: > 100 µM
[27]
  TGI: > 100 µM
[28]
  TGI: > 100 µM
[29]
  TGI: 74.4 µM
[30]
  TGI: > 100 µM
[31]
  TGI: > 100 µM
[32]
  TGI: > 100 µM
[33]
  TGI: 94.8 µM
[34]
  TGI: > 100 µM
[35]
  TGI: > 100 µM
[36]
  TGI: > 100 µM
[37]
  TGI: > 100 µM
[38]
  TGI: 70.6 µM
[39]
  TGI: > 100 µM
[40]
  TGI: > 100 µM
[41]
  TGI: > 100 µM
[42]
  TGI: > 100 µM
[43]
  TGI: 62.4 µM
[44]
  TGI: > 100 µM
[45]
  TGI: > 100 µM
[46]
  TGI: 76.7 µM
[47]
  TGI: > 100 µM
[48]
  TGI: > 100 µM
[49]
  TGI: > 100 µM
[50]
  TGI: > 100 µM
[51]
  TGI: > 100 µM
[52]
  TGI: > 100 µM
[53]
  TGI: 90.4 µM
[54]
  TGI: > 100 µM
[55]
  TGI: > 100 µM
[56]
  TGI: > 100 µM
[57]
  TGI: 82.5 µM

## CCOC(=O)CO/N=C\C1=CC(=O)C2CC1C2(C)C (configuration not stated)
[1]
  TGI: > 100 µM
[2]
  TGI: > 100 µM
[3]
  TGI: > 100 µM
[4]
  TGI: > 100 µM
[5]
  TGI: > 100 µM
[6]
  TGI: > 100 µM
[7]
  TGI: > 100 µM
[8]
  TGI: > 100 µM
[9]
  TGI: > 100 µM
[11]
  TGI: > 100 µM
[12]
  TGI: > 100 µM
[13]
  TGI: > 100 µM
[14]
  TGI: > 100 µM
[15]
  TGI: > 100 µM
[16]
  TGI: > 100 µM
[17]
  TGI: > 100 µM
[18]
  TGI: > 100 µM
[19]
  TGI: > 100 µM
[20]
  TGI: > 100 µM
[21]
  TGI: > 100 µM
[22]
  TGI: > 100 µM
[23]
  TGI: > 100 µM
[24]
  TGI: > 100 µM
[25]
  TGI: > 100 µM
[26]
  TGI: > 100 µM
[29]
  TGI: > 100 µM
[31]
  TGI: > 100 µM
[32]
  TGI: > 100 µM
[33]
  TGI: > 100 µM
[35]
  TGI: > 100 µM
[36]
  TGI: > 100 µM
[37]
  TGI: > 100 µM
[39]
  TGI: > 100 µM
[40]
  TGI: > 100 µM
[41]
  TGI: > 100 µM
[42]
  TGI: > 100 µM
[43]
  TGI: > 100 µM
[44]
  TGI: > 100 µM
[45]
  TGI: > 100 µM
[46]
  TGI: > 100 µM
[47]
  TGI: > 100 µM
[48]
  TGI: > 100 µM
[49]
  TGI: > 100 µM
[50]
  TGI: > 100 µM
[51]
  TGI: > 100 µM
[52]
  TGI: > 100 µM
[53]
  TGI: > 100 µM
[55]
  TGI: > 100 µM
[56]
  TGI: > 100 µM
[57]
  TGI: > 100 µM

## COc1ccc(/C=C/c2cc(OC)c(OC)c(OC)c2)cc1O[Si](C)(C)C(C)(C)C
[3]
  TGI: 10.8 µM
[5]
  TGI: > 100 µM
[7]
  TGI: 83.8 µM
[8]
  TGI: 22.2 µM
[9]
  TGI: > 100 µM
[10]
  TGI: 8.08 µM
[11]
  TGI: > 100 µM
[13]
  TGI: 25.6 µM
[14]
  TGI: 34 µM
[15]
  TGI: > 100 µM
[16]
  TGI: > 100 µM
[17]
  TGI: 4.44 µM
[18]
  TGI: 32.7 µM
[19]
  TGI: > 100 µM
[20]
  TGI: 6.25 µM
[21]
  TGI: 74.5 µM
[22]
  TGI: 21.7 µM
[23]
  TGI: 37.3 µM
[24]
  TGI: > 100 µM
[25]
  TGI: 29.3 µM
[26]
  TGI: > 100 µM
[27]
  TGI: > 100 µM
[28]
  TGI: > 100 µM
[58]
  TGI: > 100 µM
[30]
  TGI: 85.4 µM
[31]
  TGI: > 100 µM
[32]
  TGI: 64 µM
[33]
  TGI: 3.68 µM
[34]
  TGI: > 100 µM
[35]
  TGI: > 100 µM
[36]
  TGI: > 100 µM
[37]
  TGI: > 100 µM
[38]
  TGI: > 100 µM
[40]
  TGI: 14.1 µM
[42]
  TGI: 30.7 µM
[43]
  TGI: > 100 µM
[44]
  TGI: 9.02 µM
[45]
  TGI: 5.71 µM
[46]
  TGI: 8.18 µM
[47]
  TGI: 47.7 µM
[48]
  TGI: 26.6 µM
[49]
  TGI: > 100 µM
[50]
  TGI: > 100 µM
[51]
  TGI: > 100 µM
[52]
  TGI: 17.3 µM
[53]
  TGI: 5.86 µM
[54]
  TGI: 13.4 µM
[55]
  TGI: > 100 µM
[56]
  TGI: 14.2 µM
[57]
  TGI: 94.1 µM
